In patent publication US12264296B2, “Compositions that contain lipophilic plant material and surfactant, and related methods” (priority 2020, dated 2025):
In brackets after ≈: the same amount, converted by molar mass.

Columns and labels:
Type in all cases: physicochemical
[1] = Thermal stability (decarboxylation) of CBDA; details: in Met10u solution
Solubility in water = assay: Solubility in water
[2] = Solubility in the amide-based surfactant DMDA (Met10u)
[3] = Solubility of CBDA in mineral oil; details: oil or lipid, under certain conditions

SMILES: C=C(C)[C@@H]1CCC(C)=C[C@H]1c1c(O)cc(CCCCC)c(C(=O)O)c1O [CBDA, Δ(9)-tetrahydrocannabidiolic acid]
- temperature at which CBDA begins to lose its carboxylic moiety (decarboxylation) and become CBD [1]: at least 130 C
- solubility of CBDA in water (Solubility in water; temperature of 4 degrees Celsius or lower, pH 4 or lower): below 20 micrograms per milliliter
- solubility of CBDA in water (Solubility in water; temperature of 70 degrees Celsius or higher, pH of 10 or higher): over 20 milligrams per milliliter
- solubility of CBDA in Met10u ([2]; at 0 C): 1%
- solubility of CBDA in Met10u ([2]; at 60 C): 100%
- solubility in DMDA ([2]; at 70 C): over 1000 mg/ml DMDA
- solubility [3]: ~6000 µg/mL (≈ 16.7 mM)
